Our source for the IC50 values is patent publication US20070060533A1, “Novel inhibitor of the formation of advanced glycation end product and aldose reductase inhibitor” (Meiji Seika Kaisha Ltd., priority 2003, published 2007).

Experiment [1] relates to AGE formation. The experiment can be described thus: AGE formation suppression test (glucose + bovine serum albumin, fluorescence). It is filed as biochemical. Particulars: 67 mmol/L phosphate buffer pH 7.2, 60° C., 48 hours. How it is done: The test was conducted by a partially modified version of the method of Morimitu et al (Morimitu. Y. et. al., Biosci. Biotech. Biochem., 59, 2018-2021 (1995)). Specifically, glucose, each test substance dissolved in DMSO, and bovine serum albumin were incubated in a 67 mmol/L phosphate buffer (pH 7.2) at 60° C. for 48 hours. AGE was thus sufficiently formed by incubation. The amount of formed AGE was discovered by dilution of the reaction solution followed by measurement using a fluorospectrophotometer. The 50% inhibition concentration (IC50) was calculated using the thus obtained value. The lower the IC50, the higher the AGE-inhibiting activity. This indicates the usefulness of a substance as an inhibitor.
(§1) The test substances used herein were the anthocyanin-containing composition prepared in Example 1 and 4 types of crystalline anthocyanin prepared in Example 2.

The target in experiment [2] is T1, aldose reductase (Rattus norvegicus, UniProt P07943).
T1 construct: the supernatant was used as a crude enzyme solution; from tissue; host or cells: lenses of Wistar male rats
Description: Aldose-reductase-inhibiting activity test (rat lens crude enzyme). Particulars: DL glycerylaldehyde substrate, pH 7.0, 30° C. It is filed as biochemical, Wistar male rats. The protocol:
The test was conducted by a partially modified version of the method of Dufrane et al (Dufrane S. P. et al., Biochem. Med., 32, 99-105 (1984)). Specifically, the lenses of Wistar male rats were homogenized with 10 mmol/L 2-mercapto ethanol. The resultant was centrifuged, and then the supernatant was used as a crude enzyme solution. Each test substance was dissolved in DMSO and then added to a 180 mmol/L phosphate buffer (pH 7.0). 100 mmol/L lithium sulfate and 0.03 mmol/L NADPH were further added to the solution to initiate a reaction at 30° C. using 1 mmol/L DL glycerylaldehyde as a substrate. 0.5 mol/L HCl was added to stop the reaction. 6 mol/L sodium hydroxide containing 10 mmol/L imidazole was added to the solution. The solution was heated for 20 minutes at 60° C. to convert NADP to a fluorescent substance. The thus generated fluorescent substance was subjected to measurement using a fluorospectrophotometer. 50% inhibition concentration (IC50) was calculated using the thus obtained value.
as §1

As usually defined, the IC50 is the concentration at which inhibition is half-maximal. As for `N=C(N)NN` [Aminoguanidine, aminoguanidine, reference compound], the IC50 in experiment [1] worked out at 1200 µM.
Take `OCC1OC(Oc2cc3c(O)cc(O)cc3[o+]c2-c2ccc(O)c(O)c2)C(O)C(O)C1O` (stereo not shown) [Example 2 (C3G), cyanidin-3-O-glucoside]: the results for the IC50 in experiment [1] and in experiment [2] were 132 µM and 4.7 µM, respectively.
Taken in the same sequence, the figures for `CC1OC(OCC2OC(Oc3cc4c(O)cc(O)cc4[o+]c3-c3ccc(O)c(O)c3)C(O)C(O)C2O)C(O)C(O)C1O` (stereo not shown) [Example 2 (C3R), cyanidin-3-O-rutinoside] were 154 µM and 2.5 µM.
Consider `OCC1OC(Oc2cc3c(O)cc(O)cc3[o+]c2-c2cc(O)c(O)c(O)c2)C(O)C(O)C1O` (stereo not shown) [Example 2 (D3G), delphinidin-3-O-glucoside], for which the IC50 is 99 µM in experiment [1] and 12.5 µM in experiment [2].
`CC1OC(OCC2OC(Oc3cc4c(O)cc(O)cc4[o+]c3-c3cc(O)c(O)c(O)c3)C(O)C(O)C2O)C(O)C(O)C1O` (stereo not shown) [Example 2 (D3R), delphinidin-3-O-rutinoside]: the IC50 in experiment [1] stood at 163 µM; in experiment [2] it was 15.2 µM.
With `C[C@@H]1O[C@@H](OC[C@H]2O[C@@H](Oc3c(-c4ccc(O)c(O)c4)oc4cc(O)cc(O)c4c3=O)[C@H](O)[C@@H](O)[C@@H]2O)[C@H](O)[C@H](O)[C@H]1O` [Rutin, rutin, reference compound], the IC50 in experiment [2] amounted to 9 µM.
